Assay results reported in PubChem BioAssay (NCI).
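48-hour exposure; five concentrations; linearly interpolated endpoints. GI50 = concentration required for 50% inhibition of growth. At the TGI there is no net growth.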

Key:
Assay in all cases: inhibition of tumour cell growth, NCI panel, 48 h
HCC-2998 colon = test system: HCC-2998 colon
MDA-MB-435 = test system: MDA-MB-435
MDA-MB-231 breast = test system: MDA-MB-231 breast
RPMI-8226 leukemia = test system: RPMI-8226 leukemia
BT-549 breast = test system: BT-549 breast
CCRF-CEM leukemia = test system: CCRF-CEM leukemia
HOP-92 NSCLC = test system: HOP-92 NSCLC
NCI-H522 lung = test system: NCI-H522 lung
NCI-H23 lung = test system: NCI-H23 lung
SW-620 colon = test system: SW-620 colon
CAKI-1 renal = test system: CAKI-1 renal
SN12C renal = test system: SN12C renal
IGROV1 ovarian = test system: IGROV1 ovarian
UACC-62 melanoma = test system: UACC-62 melanoma
ACHN renal = test system: ACHN renal
SF-268 CNS = test system: SF-268 CNS
SK-MEL-28 melanoma = test system: SK-MEL-28 melanoma
HT29 colon = test system: HT29 colon
OVCAR-3 ovarian = test system: OVCAR-3 ovarian
KM12 colon = test system: KM12 colon
K-562 leukemia = test system: K-562 leukemia
SK-MEL-5 melanoma = test system: SK-MEL-5 melanoma
RXF 393 renal = test system: RXF 393 renal
786-0 renal = test system: 786-0 renal
SK-MEL-2 melanoma = test system: SK-MEL-2 melanoma
A549 NSCLC = test system: A549 NSCLC
HOP-62 NSCLC = test system: HOP-62 NSCLC
HL-60(TB) leukemia = test system: HL-60(TB) leukemia
SK-OV-3 ovarian = test system: SK-OV-3 ovarian
HCT-116 colon = test system: HCT-116 colon
SNB-19 CNS = test system: SNB-19 CNS
M14 melanoma = test system: M14 melanoma
COLO 205 colon = test system: COLO 205 colon
SNB-75 CNS = test system: SNB-75 CNS
LOX IMVI melanoma = test system: LOX IMVI melanoma
T-47D breast = test system: T-47D breast
SR leukemia = test system: SR leukemia
OVCAR-4 ovarian = test system: OVCAR-4 ovarian
MCF7 breast = test system: MCF7 breast
MOLT-4 leukemia = test system: MOLT-4 leukemia
OVCAR-5 ovarian = test system: OVCAR-5 ovarian
NCI-H460 lung = test system: NCI-H460 lung
MALME-3M melanoma = test system: MALME-3M melanoma
PC-3 prostate = test system: PC-3 prostate
SF-539 CNS = test system: SF-539 CNS
HS 578T breast = test system: HS 578T breast
HCT-15 colon = test system: HCT-15 colon
OVCAR-8 ovarian = test system: OVCAR-8 ovarian
UACC-257 melanoma = test system: UACC-257 melanoma
DU-145 prostate = test system: DU-145 prostate
U251 CNS = test system: U251 CNS
NCI-H226 lung = test system: NCI-H226 lung
A498 renal = test system: A498 renal
UO-31 renal = test system: UO-31 renal
TK-10 renal = test system: TK-10 renal
NCI/ADR-RES ovarian = test system: NCI/ADR-RES ovarian

With `N#CCCN1C/C(=C/c2ccccc2)C(=O)/C(=C/c2ccccc2)C1` the GI50 (HCC-2998 colon) was 1.74 µM, the TGI (HCC-2998 colon) was 3.2 µM and the GI50 (MDA-MB-435) was 2.13 µM. It also gave a TGI (MDA-MB-435) of 5.89 µM, a GI50 (MDA-MB-231 breast) of 2.75 µM and a TGI (MDA-MB-231 breast) of 7.06 µM. It also gave a GI50 (RPMI-8226 leukemia) of 0.295 µM, a TGI (RPMI-8226 leukemia) of 1.16 µM and a GI50 (BT-549 breast) of 2.14 µM. The TGI (BT-549 breast) was 4.23 µM, the GI50 (CCRF-CEM leukemia) was 0.498 µM and the TGI (CCRF-CEM leukemia) was > 100 µM. It also gave a GI50 (HOP-92 NSCLC) of 12.3 µM, a TGI (HOP-92 NSCLC) of 29.4 µM and a GI50 (NCI-H522 lung) of 1.9 µM. It also gave a TGI (NCI-H522 lung) of 3.56 µM, a GI50 (NCI-H23 lung) of 3.46 µM and a TGI (NCI-H23 lung) of 12.6 µM. It also gave a GI50 (SW-620 colon) of 0.647 µM, a TGI (SW-620 colon) of 2.47 µM and a GI50 (CAKI-1 renal) of 3.16 µM. For the same molecule, the TGI (CAKI-1 renal) was 11.1 µM, the GI50 (SN12C renal) was 2.15 µM and the TGI (SN12C renal) was 4.79 µM. The GI50 (IGROV1 ovarian) was 3.66 µM, the TGI (IGROV1 ovarian) was 12.7 µM and the GI50 (UACC-62 melanoma) was 1.73 µM. The TGI (UACC-62 melanoma) was 3.44 µM, the GI50 (ACHN renal) was 1.83 µM and the TGI (ACHN renal) was 3.4 µM. The GI50 (SF-268 CNS) was 2.94 µM, the TGI (SF-268 CNS) was 8.88 µM and the GI50 (SK-MEL-28 melanoma) was 1.79 µM. For the same molecule, the TGI (SK-MEL-28 melanoma) was 3.54 µM, the GI50 (HT29 colon) was 1.81 µM and the TGI (HT29 colon) was 3.91 µM. For the same molecule, the GI50 (OVCAR-3 ovarian) was 2.63 µM, the TGI (OVCAR-3 ovarian) was 6.04 µM and the GI50 (KM12 colon) was 1.59 µM. For the same molecule, the TGI (KM12 colon) was 3.12 µM, the GI50 (K-562 leukemia) was 0.744 µM and the TGI (K-562 leukemia) was > 100 µM. The GI50 (SK-MEL-5 melanoma) was 1.65 µM, the TGI (SK-MEL-5 melanoma) was 3.07 µM and the GI50 (RXF 393 renal) was 1.66 µM. It also gave a TGI (RXF 393 renal) of 3.38 µM, a GI50 (786-0 renal) of 1.92 µM and a TGI (786-0 renal) of 4.07 µM. The GI50 (SK-MEL-2 melanoma) was 2.62 µM, the TGI (SK-MEL-2 melanoma) was 5.87 µM and the GI50 (A549 NSCLC) was 3.8 µM. It also gave a TGI (A549 NSCLC) of 16.2 µM, a GI50 (HOP-62 NSCLC) of 2.61 µM and a TGI (HOP-62 NSCLC) of 6.03 µM. It also gave a GI50 (HL-60(TB) leukemia) of 2.97 µM, a TGI (HL-60(TB) leukemia) of 21.2 µM and a GI50 (SK-OV-3 ovarian) of 4.09 µM. It also gave a TGI (SK-OV-3 ovarian) of 14.2 µM, a GI50 (HCT-116 colon) of 0.397 µM and a TGI (HCT-116 colon) of 1.88 µM. It also gave a GI50 (SNB-19 CNS) of 3.19 µM, a TGI (SNB-19 CNS) of 13.6 µM and a GI50 (M14 melanoma) of 2.12 µM. The TGI (M14 melanoma) was 4.63 µM, the GI50 (COLO 205 colon) was 2.59 µM and the TGI (COLO 205 colon) was 6.42 µM. It also gave a GI50 (SNB-75 CNS) of 7.43 µM, a TGI (SNB-75 CNS) of 21.3 µM and a GI50 (LOX IMVI melanoma) of 1.09 µM. It also gave a TGI (LOX IMVI melanoma) of 2.47 µM, a GI50 (T-47D breast) of 7.43 µM and a TGI (T-47D breast) of 21.4 µM. The GI50 (SR leukemia) was 0.289 µM, the TGI (SR leukemia) was > 100 µM and the GI50 (OVCAR-4 ovarian) was 3.1 µM. The TGI (OVCAR-4 ovarian) was 13.1 µM, the GI50 (MCF7 breast) was 0.395 µM and the TGI (MCF7 breast) was 2.35 µM. The GI50 (MOLT-4 leukemia) was 2.95 µM, the TGI (MOLT-4 leukemia) was 17.9 µM and the GI50 (OVCAR-5 ovarian) was 2.55 µM. The TGI (OVCAR-5 ovarian) was 6.6 µM, the GI50 (NCI-H460 lung) was 1.92 µM and the TGI (NCI-H460 lung) was 3.91 µM. It also gave a GI50 (MALME-3M melanoma) of 2.91 µM, a TGI (MALME-3M melanoma) of 6.69 µM and a GI50 (PC-3 prostate) of 2.6 µM. It also gave a TGI (PC-3 prostate) of 7.9 µM, a GI50 (SF-539 CNS) of 2.2 µM and a TGI (SF-539 CNS) of 4.98 µM. For the same molecule, the GI50 (HS 578T breast) was 2.96 µM, the TGI (HS 578T breast) was 13.3 µM and the GI50 (HCT-15 colon) was 1.45 µM. The TGI (HCT-15 colon) was 3.54 µM, the GI50 (OVCAR-8 ovarian) was 2.23 µM and the TGI (OVCAR-8 ovarian) was 6.03 µM. The GI50 (UACC-257 melanoma) was 1.91 µM, the TGI (UACC-257 melanoma) was 4.64 µM and the GI50 (DU-145 prostate) was 5.86 µM. For the same molecule, the TGI (DU-145 prostate) was 18.1 µM, the GI50 (U251 CNS) was 1.48 µM and the TGI (U251 CNS) was 3.12 µM. It also gave a GI50 (NCI-H226 lung) of 18.1 µM, a TGI (NCI-H226 lung) of 50.3 µM and a GI50 (A498 renal) of 13.4 µM. For the same molecule, the TGI (A498 renal) was 26.8 µM, the GI50 (UO-31 renal) was 2.01 µM and the TGI (UO-31 renal) was 6.08 µM. The GI50 (TK-10 renal) was 2.97 µM, the TGI (TK-10 renal) was 7.76 µM and the GI50 (NCI/ADR-RES ovarian) was 3.44 µM. The TGI (NCI/ADR-RES ovarian) was 31.7 µM.
